Measurements published in US11214594B2, “Antimicrobial peptide having synergistic antibacterial effect with antibiotics on multidrug resistant bacteria, and use thereof” (priority 2016, dated 2022).
Converted amounts (≈) assume the structure as drawn. Like-named read-outs stand apart in the source and are kept apart here. Where a SMILES comes first, the peptide text is derived from it.

Key:
MDREC 1238 = assay type: cell-based, Escherichia coli
In short: (§1)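 Broth microdilution in MH medium: bacterial strains diluted to 2×10^6 CFU were mixed with equal volumes of peptide serially diluted twofold in MH medium.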

MDRST 8009 = assay type: cell-based, Salmonella typhimurium; settings: agent alone
In short: as §1

MDRPA 2003 = assay type: cell-based, Pseudomonas aeruginosa
In short: as §1

MDRPA 2002 = assay type: cell-based, Pseudomonas aeruginosa
In short: as §1

P. aeruginosa = assay: microbe, parasite or virus in culture; assay type: cell-based, Pseudomonas aeruginosa
In short: as §1

E. coli [1] = assay: microbe, parasite or virus in culture; assay type: cell-based, Escherichia coli; settings: 16 h
In short: as §1

MDREC 1229 [2] = assay: microbe, parasite or virus in culture; assay type: cell-based, Escherichia coli
In short: as §1

B. subtilis = assay: microbe, parasite or virus in culture; assay type: cell-based, Bacillus subtilis
In short: as §1

MDRAB 12035 [3] = assay: MIC of antibiotic during combined treatment with antimicrobial peptide; assay type: cell-based, Acinetobacter baumannii
In short: (§2)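 Strains in MH medium at 2×10^6 CFU/ml were mixed with peptide diluted stepwise (2:1) from its MIC, then antibiotic dilutions in MH medium were added to give the antibiotic MIC. The reversed set-up, peptide titrated against fixed antibiotic, gave the peptide MIC.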

S. epidermidis = assay: microbe, parasite or virus in culture; assay type: cell-based, Staphylococcus epidermidis
In short: as §1

MDRAB 12036 = assay type: cell-based, Acinetobacter baumannii
In short: as §1

MRSA 3114 = assay type: cell-based, Staphylococcus aureus; settings: 3114
In short: as §1

MRSA 3126 = assay type: cell-based, Staphylococcus aureus; settings: 3126
In short: as §1

MDRST 8007 = assay: Minimal inhibitory concentration (MIC), single agent; assay type: cell-based, Salmonella typhimurium; settings: agent alone
In short: as §1

E. coli [4] = assay type: cell-based, Escherichia coli; settings: E. coli
In short: as §2

MDREC 1229 [5] = assay type: cell-based, Escherichia coli
In short: as §2

A. baumannii = assay: MIC of antimicrobial peptide during combined treatment with antibiotic; assay type: cell-based, Acinetobacter baumannii
In short: as §2

MDRAB 12035 [6] = assay: as above; assay type: cell-based, Acinetobacter baumannii
In short: as §2

E. coli [7] = assay: MIC of antibiotic during combined treatment with antimicrobial peptide; assay type: cell-based, Escherichia coli; settings: for Antibiotic MIC, Erythromycin / Antibiotic MIC, Linezolid / Antibiotic MIC, Vancomycin: E. coli
In short: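 Read-out is the MIC of each combined solution, obtained from MH-medium dilutions of antibiotic added well by well, with a reversed-condition run as well.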

[8] = peptide treatment concentration 1 μg/ml
[9] = peptide treatment concentration 2 μg/ml
[10] = peptide treatment concentration 4 μg/ml
[11] = peptide treatment concentration 6 μg/ml
[12] = peptide treatment concentration 8 μg/ml
[13] = peptide treatment concentration 16 μg/ml
[14] = peptide treatment concentration 32 μg/ml
[15] = peptide treatment concentration 64 μg/ml
[16] = with Erythromycin […] (Conc./MIC 1)
[17] = erythromycin 4 μg/ml (Conc./MIC 1/8)
[18] = erythromycin 8 μg/ml (Conc./MIC 1/4)
[19] = erythromycin 16 μg/ml (Conc./MIC 1/2)
[20] = erythromycin 32 μg/ml (Conc./MIC 1)
[21] = vancomycin 512 μg/ml (Conc./MIC 1/2)
[22] = vancomycin 1024 μg/ml (Conc./MIC 1)

Structure (SMILES): CC[C@H](C)[C@H](NC(=O)[C@H](CCCCN)NC(=O)[C@H](Cc1c[nH]c2ccccc12)NC(=O)[C@@H](N)CCCNC(=N)N)C(=O)N[C@@H](Cc1ccccc1)C(=O)N[C@@H](CCCCN)C(=O)N[C@@H](CCCCN)C(=O)N[C@H](C(=O)N1CCC[C@H]1C(=O)N[C@@H](CCCCN)C(=O)N[C@@H](Cc1ccccc1)C(=O)N[C@@H](CC(C)C)C(=O)N[C@@H](Cc1c[nH]cn1)C(=O)N[C@@H](CO)C(=O)N[C@@H](Cc1c[nH]c2ccccc12)C(=O)N[C@@H](CCCCN)C(=O)N[C@@H](CCCCN)C(=O)N[C@@H](Cc1c[nH]c2ccccc12)C(N)=O)[C@@H](C)CC [PapMA-4, RWK IFK KIP KFL HSW KKW-NH2] (H-RWKIFKKIPKFLHSWKKW-NH2; N-terminus assumed)
- Minimal inhibitory concentration MIC (MDREC 1238): 32 mg/L (≈ 13 µM)
- Minimal inhibitory concentration MIC (MDRST 8009): 32 mg/L (≈ 13 µM)
- Minimal inhibitory concentration MIC (MDRPA 2003): 16 mg/L (≈ 6.51 µM)
- Minimal inhibitory concentration MIC (MDRPA 2002): 16 mg/L (≈ 6.51 µM)
- Minimal inhibitory concentration MIC (P. aeruginosa): 16 mg/L (≈ 6.51 µM)
- Minimal inhibitory concentration MIC (E. coli [1]): 16 mg/L (≈ 6.51 µM)
- Minimal inhibitory concentration MIC (MDREC 1229 [2]): 32 mg/L (≈ 13 µM)
- Minimal inhibitory concentration MIC (B. subtilis): >128 mg/L
- Erythromycin MIC during combined treatment with peptide (MDRAB 12035 [3]; [8]): 32 mg/L
- Linezolid MIC during combined treatment with peptide (MDRAB 12035 [3]; [8]): >128 mg/L
- Vancomycin MIC during combined treatment with peptide (MDRAB 12035 [3]; [8]): >128 mg/L
- Erythromycin MIC during combined treatment with peptide (MDRAB 12035 [3]; [9]): 16 mg/L
- Linezolid MIC during combined treatment with peptide (MDRAB 12035 [3]; [9]): 128 mg/L
- Vancomycin MIC during combined treatment with peptide (MDRAB 12035 [3]; [9]): >128 mg/L
- Erythromycin MIC during combined treatment with peptide (MDRAB 12035 [3]; [10]): 8 mg/L
- Linezolid MIC during combined treatment with peptide (MDRAB 12035 [3]; [10]): 64 mg/L
- Vancomycin MIC during combined treatment with peptide (MDRAB 12035 [3]; [10]): 128 mg/L
- Erythromycin MIC during combined treatment with peptide (MDRAB 12035 [3]; [11]): 4 mg/L
- Linezolid MIC during combined treatment with peptide (MDRAB 12035 [3]; [11]): 64 mg/L
- Vancomycin MIC during combined treatment with peptide (MDRAB 12035 [3]; [11]): 64 mg/L
- Erythromycin MIC during combined treatment with peptide (MDRAB 12035 [3]; [12]): 2 mg/L
- Linezolid MIC during combined treatment with peptide (MDRAB 12035 [3]; [12]): 32 mg/L
- Vancomycin MIC during combined treatment with peptide (MDRAB 12035 [3]; [12]): 64 mg/L
- Erythromycin MIC during combined treatment with peptide (MDRAB 12035 [3]; [13]): 0 mg/L
- Linezolid MIC during combined treatment with peptide (MDRAB 12035 [3]; [13]): 0 mg/L
- Vancomycin MIC during combined treatment with peptide (MDRAB 12035 [3]; [13]): 0 mg/L
- Erythromycin MIC during combined treatment with peptide (MDRAB 12035 [3]; [14]): 0 mg/L
- Linezolid MIC during combined treatment with peptide (MDRAB 12035 [3]; [14]): 0 mg/L
- Vancomycin MIC during combined treatment with peptide (MDRAB 12035 [3]; [14]): 0 mg/L
- Erythromycin MIC during combined treatment with peptide (MDRAB 12035 [3]; [15]): 0 mg/L
- Linezolid MIC during combined treatment with peptide (MDRAB 12035 [3]; [15]): 0 mg/L
- Vancomycin MIC during combined treatment with peptide (MDRAB 12035 [3]; [15]): 0 mg/L
- Minimal inhibitory concentration MIC (S. epidermidis): >128 mg/L
- Minimal inhibitory concentration MIC (MDRAB 12036): 16 mg/L (≈ 6.51 µM)
- Minimal inhibitory concentration MIC (MRSA 3114): >128 mg/L
- Minimal inhibitory concentration MIC (MRSA 3126): >128 mg/L
- Minimal inhibitory concentration MIC (MDRST 8007): 32 mg/L (≈ 13 µM)
- Peptide MIC (E. coli [4]; [16]): 0 mg/L
- Peptide MIC (E. coli [4]; with Linezolid […] (Conc./MIC 1)): 0 mg/L
- Peptide MIC (E. coli [4]; with Vancomycin 1024 μg/ml (Conc./MIC 1)): 0 mg/L
- Peptide MIC (MDREC 1229 [5]; [16]): 0 mg/L
- Peptide MIC (MDREC 1229 [5]; with Linezolid 512 μg/ml (Conc./MIC 1)): 0 mg/L
- Peptide MIC during treatment with antibiotic (A. baumannii; [17]): 8 mg/L
- Peptide MIC during treatment with antibiotic (A. baumannii; [18]): 4 mg/L
- Peptide MIC during treatment with antibiotic (A. baumannii; [19]): 2 mg/L
- Peptide MIC during treatment with antibiotic (A. baumannii; [20]): 0 mg/L
- Peptide MIC during treatment with antibiotic (A. baumannii; linezolid 32 μg/ml (Conc./MIC 1/8)): 4 mg/L
- Peptide MIC during treatment with antibiotic (A. baumannii; linezolid 64 μg/ml (Conc./MIC 1/4)): 4 mg/L
- Peptide MIC during treatment with antibiotic (A. baumannii; linezolid […] (Conc./MIC 1)): 0 mg/L
- Peptide MIC during treatment with antibiotic (A. baumannii; linezolid […] (Conc./MIC 1/2)): 1 mg/L
- Peptide MIC during treatment with antibiotic (A. baumannii; [21]): 0.25 mg/L
- Peptide MIC during treatment with antibiotic (A. baumannii; [22]): 0 mg/L
- Peptide MIC during treatment with antibiotic (A. baumannii; vancomycin […] (Conc./MIC 1/4)): 0.25 mg/L
- Peptide MIC during treatment with antibiotic (A. baumannii; vancomycin […] (Conc./MIC 1/8)): 2 mg/L
- Peptide MIC during treatment with erythromycin (MDRAB 12035 [6]; [17]): 4 mg/L
- Peptide MIC during treatment with erythromycin (MDRAB 12035 [6]; [18]): 4 mg/L
- Peptide MIC during treatment with erythromycin (MDRAB 12035 [6]; [19]): 2 mg/L
- Peptide MIC during treatment with erythromycin (MDRAB 12035 [6]; [20]): 0 mg/L
- Peptide MIC during treatment with linezolid (MDRAB 12035 [6]; linezolid 64 μg/ml (Conc./MIC 1/8)): 4 mg/L
- Peptide MIC during treatment with linezolid (MDRAB 12035 [6]; linezolid 512 μg/ml (Conc./MIC 1)): 0 mg/L
- Peptide MIC during treatment with linezolid (MDRAB 12035 [6]; linezolid […] (Conc./MIC 1/2)): 1 mg/L
- Peptide MIC during treatment with linezolid (MDRAB 12035 [6]; linezolid […] (Conc./MIC 1/4)): 2 mg/L
- Peptide MIC during treatment with vancomycin (MDRAB 12035 [6]; [21]): 2 mg/L
- Peptide MIC during treatment with vancomycin (MDRAB 12035 [6]; [22]): 0.25 mg/L
- Peptide MIC during treatment with vancomycin (MDRAB 12035 [6]; vancomycin […] (Conc./MIC 1/4)): 2 mg/L
- Peptide MIC during treatment with vancomycin (MDRAB 12035 [6]; vancomycin […] (Conc./MIC 1/8)): 4 mg/L
- Synergistic effect of antibacterial activity with existing antibiotics compared with PapMA-1 (E. coli [7]; E. coli and MDREC1229): level similar to that of the PapMA-1 peptide
- Antibiotic MIC, Erythromycin (E. coli [7]; erythromycin combined with peptide at 1 μg/ml): 64 mg/L
- Antibiotic MIC, Erythromycin (E. coli [7]; erythromycin combined with peptide at 2 μg/ml): 32 mg/L
- Antibiotic MIC, Erythromycin (E. coli [7]; erythromycin combined with peptide at 4 μg/ml): 16 mg/L
- Antibiotic MIC, Erythromycin (E. coli [7]; erythromycin combined with peptide at 6 μg/ml): 8 mg/L
- Antibiotic MIC, Erythromycin (E. coli [7]; erythromycin combined with peptide at 8 μg/ml): 8 mg/L
- Antibiotic MIC, Erythromycin (E. coli [7]; erythromycin combined with peptide at 16 μg/ml): 0 mg/L
- Antibiotic MIC, Erythromycin (E. coli [7]; erythromycin combined with peptide at 32 μg/ml): 0 mg/L
- Antibiotic MIC, Erythromycin (E. coli [7]; erythromycin combined with peptide at 64 μg/ml): 0 mg/L
- Antibiotic MIC, Linezolid (E. coli [7]; linezolid combined with peptide at 1 μg/ml): 128 mg/L
- Antibiotic MIC, Linezolid (E. coli [7]; linezolid combined with peptide at 2 μg/ml): 64 mg/L
- Antibiotic MIC, Linezolid (E. coli [7]; linezolid combined with peptide at 4 μg/ml): 32 mg/L
- Antibiotic MIC, Linezolid (E. coli [7]; linezolid combined with peptide at 6 μg/ml): 32 mg/L
- Antibiotic MIC, Linezolid (E. coli [7]; linezolid combined with peptide at 8 μg/ml): 16 mg/L
- Antibiotic MIC, Linezolid (E. coli [7]; linezolid combined with peptide at 16 μg/ml): 0 mg/L
- Antibiotic MIC, Linezolid (E. coli [7]; linezolid combined with peptide at 32 μg/ml): 0 mg/L
- Antibiotic MIC, Linezolid (E. coli [7]; linezolid combined with peptide at 64 μg/ml): 0 mg/L
- Antibiotic MIC, Vancomycin (E. coli [7]; vancomycin combined with peptide at 1 μg/ml): >128 mg/L
- Antibiotic MIC, Vancomycin (E. coli [7]; vancomycin combined with peptide at 2 μg/ml): >128 mg/L
- Antibiotic MIC, Vancomycin (E. coli [7]; vancomycin combined with peptide at 4 μg/ml): >128 mg/L
- Antibiotic MIC, Vancomycin (E. coli [7]; vancomycin combined with peptide at 6 μg/ml): 128 mg/L
- Antibiotic MIC, Vancomycin (E. coli [7]; vancomycin combined with peptide at 8 μg/ml): 32 mg/L
- Antibiotic MIC, Vancomycin (E. coli [7]; vancomycin combined with peptide at 16 μg/ml): 0 mg/L
- Antibiotic MIC, Vancomycin (E. coli [7]; vancomycin combined with peptide at 32 μg/ml): 0 mg/L
- Antibiotic MIC, Vancomycin (E. coli [7]; vancomycin combined with peptide at 64 μg/ml): 0 mg/L
